Assay results from US20040180959A1, “Gabapentin analogues for fibromy algia and concomitant disorders” (priority 2002, published 2004).

System: CD-1 mice
Assay: Tail Suspension Test (TST) in mice
Assay type: in vivo
Settings: 2 hours after treatment
Description: The anxiolytic and antidepressant activity of (3S, 4S)-(1-Aminomethyl-3,4-dimethyl-cyclopentyl)-acetic acid (“Compound A”) was assessed using the Tail Suspension Test (TST) in mice, and in the Water-lick (Vogel) Conflict Test (WLC) in rats. The Vogel test is a recognized test procedure for assessing the potential anxiolytic utility. The TST procedure is a behavior despair paradigm used to assess potential antidepressant activity.
The method consisted of suspending mice by a piece of cellophane tape attached to the distal end of the tail for 6 minutes. Animals (CD-1 mice, weighing 22 to 27 g, from Charles River Labs) were tested. The test apparatus was the TST-2™ (ITEM-Labo, Le Kremmlin-Bicetre Cedex, France). Data were analyzed with analysis of variance (ANOVA) and Tukey's Multiple Range Test or Student's t-test.
Compound A was dissolved in water and tested orally as a solution from 0.3 to 100 mg/kg in rats and 3 to 300 mg/kg in mice. Dosages are expressed as the active moiety and were administered in a volume of 1 mL/kg for rats and 10 mL/kg for mice.
The profile of typical […] activity in the TST consists of […]. Compound A and pregabalin were tested concurrently (PO) 2 hours after treatment. Compound A was administered at doses ranging from 3 to 100 mg/kg and pregabalin was tested from 3-300 mg/kg and served as positive control (Table 1). Compound A dose dependently increases immobility with the MED observed at the 3 mg/kg dosage and maximal effects were seen following the 30 mg/kg dose.

In the case of `C[C@H]1CC(CN)(CC(=O)O)C[C@@H]1C` [Compound A, (3S, 4S)-(1-Aminomethyl-3,4-dimethyl-cyclopentyl)-acetic acid], the “Immobility, % Percent of control” value (3 mg/kg PO) is reported as 126.8 ± 7.0 %, the “Power of Movement, % Percent of control” value (3 mg/kg PO) is reported as 70.7 ± 10.3% and the “Immobility, % Percent of control” value (10 mg/kg PO) is reported as 143.7 ± 11.0 %. For the same compound, the “Power of Movement, % Percent of control” value (10 mg/kg PO) was 60.8 ± 11.4%, the “Immobility, % Percent of control” value (30 mg/kg PO) was 185.9 ± 7.0 % and the “Power of Movement, % Percent of control” value (30 mg/kg PO) was 46.4 ± 12.3 %. For the same compound, the “Immobility, % Percent of control” value (100 mg/kg PO) was 182.4 ± 5.9 %, the “Power of Movement, % Percent of control” value (100 mg/kg PO) was 50.5 ± 18.3 % and the “Dose of maximal effects on immobility” value (PO) was 30 mg/kg. For the same compound, the “MED for increasing immobility” value (PO) was 3 mg/kg and the “Power of movement parameter (effect in words)” value (PO) was “decreased at the 30 and 100 mg/kg dosages”.
